Assay results published in publication PMC4654502, “Early Gelatinase Activity Is Not a Determinant of Long-Term Recovery after Traumatic Brain Injury in the Immature Mouse” (PLoS ONE, 2015).
Where “and” joins values, the source holds several entries; their conditions need not be identical. Identical values can stand only once.

How the values were obtained:
[1] = system: controlled cortical impact TBI at p21; test: Elevated plus maze at adulthood after TBI at p21; format: in vivo, male C57Bl/6J mice; conditions: 25 mg/kg s.c. at 2, 4, 24, 48 h post-injury; tested ~2 months post-injury
Protocol: (§1) The controlled cortical impact model of TBI was used as previously described. TBI to the p21 mouse approximates a toddler-aged child, based upon the structural, biochemical and behavioral characteristics of this age. Pups were anaesthetized with 1.25% 2,2,2-tribromoethanol (Avertin; Sigma-Aldrich, St. Louis, MO) in isotonic saline (i.p. bolus at 0.02 mL/g body weight). After craniotomy, mice were subjected to a controlled cortical impact at 4.5 m/s velocity and 1.73 mm depth of penetration, for a sustained depression of 150 ms, using a 3.0 mm convex impactor tip. Mice were maintained on a water-circulating heating pad throughout surgery and recovery. Following impact, the scalp was closed with sutures and each animal administered 0.5 ml of isotonic saline subcutaneously (s.c.) to prevent post-operative dehydration. Sham-operated mice underwent identical surgical procedures, including craniotomy, without receiving the cortical impact. All mice were closely monitored for 1–2 hours post-surgery until return of the righting reflex and full mobilization. […]
The elevated plus maze (Kinder Scientific, Poway, CA) assesses anxiety based upon the natural tendency of rodents to avoid the open arms in preference for enclosed areas. […] Times spent in the open versus closed arms was assessed as previously described.

[2] = Body weight after surgery at p21; format: in vivo, male C57Bl/6J mice; conditions: 25 mg/kg s.c. at 2, 4, 24, 48 h post-injury or sham-operation
Protocol: (§2) The controlled cortical impact model of TBI was used as previously described. TBI to the p21 mouse approximates a toddler-aged child, based upon the structural, biochemical and behavioral characteristics of this age. Pups were anaesthetized with 1.25% 2,2,2-tribromoethanol (Avertin; Sigma-Aldrich, St. Louis, MO) in isotonic saline (i.p. bolus at 0.02 mL/g body weight). After craniotomy, mice were subjected to a controlled cortical impact at 4.5 m/s velocity and 1.73 mm depth of penetration, for a sustained depression of 150 ms, using a 3.0 mm convex impactor tip. Mice were maintained on a water-circulating heating pad throughout surgery and recovery. Following impact, the scalp was closed with sutures and each animal administered 0.5 ml of isotonic saline subcutaneously (s.c.) to prevent post-operative dehydration. Sham-operated mice underwent identical surgical procedures, including craniotomy, without receiving the cortical impact. All mice were closely monitored for 1–2 hours post-surgery until return of the righting reflex and full mobilization. Mice were then returned to group-housing, and weighed post-surgery at days 1, 3, and weekly thereafter till the end of the study.

[3] = Pharmacokinetics and brain distribution after multiple-dose s.c. administration; format: in vivo, p21 naïve male C57Bl/6J mice
Protocol: Dosing route and concentration were similar to what we proposed to do for treatment for the current study. Terminal blood samples were collected in heparinized tubes through the posterior vena cava and centrifuged to obtain plasma (n = 3 per time point). Whole brain samples were harvested after transcardial perfusion with saline, immediately flash frozen in liquid nitrogen, and stored at -80°C until analysis.

[4] = system: MMP-2; test: Inhibition constant for MMP-2; format: biochemical; conditions: more potent than the parent compound
[5] = target: MMP-9; conditions: cited from earlier work
[6] = system: MMP-9; test: Inhibition constant for MMP-9; format: biochemical; conditions: more potent than the parent compound
[7] = system: controlled cortical impact TBI at p21; test: Morris water maze at adulthood after TBI at p21; format: in vivo, male C57Bl/6J mice; conditions: 25 mg/kg s.c. at 2, 4, 24, 48 h post-injury
Protocol: as §2
The treatment regime was based upon several considerations. […] Thirdly, we limited treatment to a period of 48 h post-injury in order to minimize potential off-target effects on ongoing brain development processes at this time, given the known roles that these gelatinases play in postnatal synaptic maturation. For acute studies (gelatin zymography and histology) animals were euthanized at 4 hours and for in situ zymography, they were euthanized 1 hour after the last injection. For long-term studies (behavioral and cognitive assessments and histology) animals were euthanized at ~2 months post-injury. Euthanasia was by overdose with 2.5% Avertin i.p. followed by decapitation or cardiac transperfusion as described below.
Mice were randomized for behavior testing and all behavior testing was performed by individuals blinded to injury and treatment. Behavioral and cognitive testing of brain injured mice and sham controls commenced at 2 months post-injury (~ 3 months of age; n = 15/group). An extensive battery of behavioral assessments was performed in the following order: open field, rotarod, elevated plus maze, three-chamber social task, resident-intruder, and Morris water maze (MWM). […]
The MWM was used to assess spatial learning and memory as previously described, using a 140 cm-diameter circular pool filled with opaque water (22°C). […] Movements were tracked with an overhead mounted video camera interfaced with Noldus EthoVision software (Noldus IT, Tacoma, WA), for quantification of the cumulative distance to and latency to locate the platform, as well as swim velocity (cm/s). […]

[8] = system: controlled cortical impact TBI at p21; test: Resident-intruder test at adulthood after TBI at p21; format: in vivo, male C57Bl/6J mice; conditions: 25 mg/kg s.c. at 2, 4, 24, 48 h post-injury; tested at adulthood
Protocol: as §1
To assess social investigative behaviors, a novel stimulus mouse (matched for strain, age and sex) was presented into the established home cage of the test mouse, and investigative behaviors were quantified from video recordings as previously described.

[9] = 25 mg/kg s.c. at 0, 2 and 24 h, p21 mice
[10] = 0.5 h after final dose, 25 mg/kg s.c. at 0, 2 and 24 h, p21 mice
[11] = 1 h after final dose, 25 mg/kg s.c. at 0, 2 and 24 h, p21 mice
[12] = 2 h after final dose, 25 mg/kg s.c. at 0, 2 and 24 h, p21 mice

## O=S(=O)(CC1CS1)c1ccc(Oc2ccc(O)cc2)cc1 (stereo not shown) [p-OH SB-3CT]
[1]
  time spent in the open arms of the elevated plus maze: not affected by either TBI or p-OH SB-3CT treatment
[2]
  animal weight over development: no differences between treatment or injury groups
[3]; [9]
  AUC 0-last, brain: 189 pmol·min/mg
  AUC 0-last, plasma: 273 µM·min
  AUC 0-∞, brain: 191 pmol·min/mg
  AUC 0-∞, plasma: 276 µM·min
  Brain AUC /Plasma AUC: 0.693
[3]; [10]
  Brain concentration: 4.67 ± 1.60 pmol/mg tissue
  Plasma concentration: 6490 ± 4490 nM
[3]; 30 min after final dose, assuming a density of 1 g/mL
  peak brain level expressed as concentration: 4.67 µM
[3]; [11]
  Brain concentration: 0.905 ± 1.09 pmol/mg tissue
  Plasma concentration: 1660 ± 1820 nM
[3]; [12]
  Brain concentration: 0.0772 ± 0.0211 pmol/mg tissue
  Plasma concentration: 122 ± 76.2 nM
[3]; 4 h after final dose, 25 mg/kg s.c. at 0, 2 and 24 h, p21 mice, 25 mg/kg
  Brain concentration: 0.0209 ± 0.0058 pmol/mg tissue and 0.0209 ± 0.00578 pmol/mg tissue
[3]; s.c., after the final dose
  time to peak concentration in brain: 30 min
  time to peak concentration in plasma: 30 min
[4]
  potency at inhibiting MMP-2 relative to parent compound SB-3CT: 5 fold
[5]
  Ki: 160 ± 80 nM
[6]
  potency at inhibiting MMP-9 relative to parent compound SB-3CT: 2.5 fold
[7]; four probe trials
  MWM probe trials, effect of injury on spatial memory retention: not rescued by acute inhibition of gelatinases with p-OH SB-3CT
[7]; tested at adulthood
  MWM cumulative distance to the target, visible and hidden sessions: no effect of p-OH SB-3CT treatment
  MWM latency to reach the platform, visible and hidden platform sessions: did not modify this injury-related behavior
  MWM swim velocity during visible platform trials: not influenced
[8]
  injury-induced reduction in social investigation (resident-intruder): independent of treatment with p-OH SB-3CT
